From patent US20230338609A1, “MEDICAL DEVICES AND MATERIALS COMPRISING BIODEGRADABLE POLYESTERS” (AMICOAT AS, priority 2020, published 2023)
Values after ≈ are worked out from the molar mass of the structure shown.

Tests used:
[1] = system: Candida tropicalis ATCC750 - reference strain; assay type: cell-based
Method: (§1) Yeast and filamentous fungal MIC were performed in MOPS buffered RPMI 1640 medium (MOPS buffer obtained from Sigma Aldrich Ltd., RPMI 1640 obtained from Invitrogen Ltd, Paisley, Scotland). The yeast inocula were in the range 7.5×10^2-4×10^3 CFU/mL and the filamentous fungi approximately 8×10^3-1×10^5 CFU/mL

[2] = system: Cryptococcus neoformans - G.R. Micro collection; assay type: cell-based
Method: as §1

[3] = system: Candida (Issatchenkia) krusei ATCC6258 - reference strain; assay type: cell-based
Method: as §1

[4] = system: Trichophyton mentagrophytes - G.R. Micro collection; assay type: cell-based
Method: as §1

[5] = system: Staphylococcus saprophyticus - antibiotic susceptible clinical isolate; assay type: cell-based
Source text: (§2) Cation-adjusted Mueller-Hinton broth (Oxoid Ltd., Basingstoke, UK and Trek Diagnostic Systems Ltd., East Grinstead, UK) (supplemented with 5% laked horse blood for Streptococcus spp., Corynebacterium jeikeium and Listeria monocytogenes) was used for aerobic bacteria, with an initial inoculum of approximately 10^5 colony-forming units (CFU)/mL.

[6] = system: Staphylococcus aureus - methicillin-resistant clinical isolate; assay type: cell-based
Source text: as §2

[7] = system: Streptococcus agalactiae - antibiotic-susceptible clinical isolate; assay type: cell-based
Source text: as §2

[8] = system: EMRSA15 Staphylococcus aureus (MRSA) - SSCmec type 4; assay type: cell-based; settings: EMRSA15 - SSCmec type 4
Source text: as §2

[9] = system: Staphylococcus aureus ATCC 43300 - methicillin-resistant control strain; assay type: cell-based
Source text: as §2

[10] = system: Corynebacterium jeikeium - antibiotic-susceptible clinical isolate; assay type: cell-based
Source text: as §2

[11] = system: Moraxella catarrhalis - β -lactamase positive clinical isolate; assay type: cell-based
Source text: as §2

[12] = system: EMRSA3 Staphylococcus aureus (MRSA) - SSCmec type 1; assay type: cell-based; settings: EMRSA3 - SSCmec type 1
Source text: as §2

[13] = system: Staphylococcus epidermidis antibiotic susceptible clinical isolate; assay type: cell-based
Source text: as §2

[14] = system: Staphylococcus aureus ATCC 25923 - antibiotic-susceptible control strain; assay type: cell-based
Source text: as §2

[15] = system: Enterococcus gallinarum vancomycin-resistant (VanC) clinical isolate; assay type: cell-based
Source text: as §2

[16] = system: Moraxella catarrhalis - reduced fluoroquinolone susceptibility clinical isolate; assay type: cell-based
Source text: as §2

[17] = system: Staphylococcus aureus ATCC 29213 - antibiotic-susceptible control strain; assay type: cell-based
Source text: as §2

[18] = system: Corynebacterium jeikeium - multi-drug resistant clinical isolate; assay type: cell-based
Source text: as §2

[19] = system: Pseudomonas aeruginosa - multi-drug resistant clinical isolate; assay type: cell-based
Source text: as §2

[20] = system: Staphylococcus epidermidis methicillin-resistant clinical isolate; assay type: cell-based
Source text: as §2

[21] = system: Staphylococcus haemolyticus - antibiotic susceptible clinical isolate; assay type: cell-based
Source text: as §2

[22] = system: HT2001254 Staphylococcus aureus (MRSA) - PVL positive; assay type: cell-based
Source text: as §2

[23] = system: Streptococcus bovis - macrolide-resistant clinical isolate; assay type: cell-based
Source text: as §2

E. coli = settings: Table 5
[24] = system: Staphylococcus aureus, strain ATCC 25923; settings: ATCC 25923
P. aeruginosa = settings: Table 5
C. albicans = settings: Table 5
[25] = system: Staphylococcus aureus FDA486; assay: Murine skin infection model, topical treatment; assay type: in vivo; settings: mice; cream or gel containing 2% (w/w); three treatments at three hourly intervals; biopsy three hours after last
Method: (§3) The skin of mice was infected with Staphylococcus aureus or Streptococcus pyogenes and subsequently given a total of three treatments at three hourly intervals. Three hours after the last treatment, skin biopsies were collected and the number of colony forming units (CFUs) present in the skin sample was determined. Results are shown in FIGS. 1 and 2, expressed as the number of colony forming units per mouse.
(§4) The skin of mice was infected with Staphylococcus aureus or Streptococcus pyogenes and subsequently given a total of three treatments at three hourly intervals. Three hours after the last treatment, skin biopsies were collected and the number of colony forming units (CFUs) present in the skin sample was determined. Results are shown in FIGS. 3, 4 and 5 expressed as the number of colony forming units per mouse.

[26] = system: Streptococcus pyogenes CS301; assay: Murine skin infection model, topical treatment; assay type: in vivo; settings: mice
Method: as §3, §4

[27] = system: Methicillin resistant Staphylococcus epidermidis (MRSE) strain ATCC 27626; settings: ATCC 27626
[28] = system: Methicillin resistant Staphylococcus aureus (MRSA) strain ATCC 33591; settings: ATCC 33591
S. pyogenes = settings: Table 5

## CC(C)NC(=O)[C@H](CCCNC(=N)N)NC(=O)[C@H](Cc1c(C(C)(C)C)[nH]c2c(C(C)(C)C)cc(C(C)(C)C)cc12)NC(=O)[C@@H](N)CCCNC(=N)N [Compound 7]
[1]
  MIC: 4 mg/L (≈ 5.51 µM)
[2]
  MIC: 8 mg/L (≈ 11 µM)
[3]
  MIC: 8 mg/L (≈ 11 µM)
[4]
  MIC: 8 mg/L (≈ 11 µM)
[5]
  MIC: 2 mg/L (≈ 2.75 µM)
[6]
  MIC: 8 mg/L (≈ 11 µM)
[7]
  MIC: 8 mg/L (≈ 11 µM)
[8]
  MIC: 8 mg/L (≈ 11 µM)
[9]
  MIC: 8 mg/L (≈ 11 µM)
[10]
  MIC: 8 mg/L (≈ 11 µM)
[11]
  MIC: 4 mg/L (≈ 5.51 µM)
[12]
  MIC: 8 mg/L (≈ 11 µM)
[13]
  MIC: 4 mg/L (≈ 5.51 µM)
[14]
  MIC: 8 mg/L (≈ 11 µM)
[15]
  MIC: 8 mg/L (≈ 11 µM)
[16]
  MIC: 8 mg/L (≈ 11 µM)
[17]
  MIC: 8 mg/L (≈ 11 µM)
[18]
  MIC: 8 mg/L (≈ 11 µM)
[19]
  MIC: 8 mg/L (≈ 11 µM)
[20]
  MIC: 4 mg/L (≈ 5.51 µM)
[21]
  MIC: 4 mg/L (≈ 5.51 µM)
[22]
  MIC: 8 mg/L (≈ 11 µM)
[23]
  MIC: 8 mg/L (≈ 11 µM)
E. coli
  E. coli (MIC): 7 mg/L
[24]
  S. aureus (MIC): <2 mg/L
P. aeruginosa
  P. aeruginosa (MIC): 7 mg/L
C. albicans
  C. albicans (MIC): 25 mg/L
[25]
  number of CFUs in skin biopsy vs placebo: the number of CFUs was reduced
[26]; 1% or 2% gel, three treatments at three hourly intervals
  number of CFUs in skin biopsy vs placebo gel and bactroban: more effective at reducing the number of CFUs from a Streptococcus pyogenes CS 301 infection than the placebo gel or the bactroban
[26]; 2% gel vs 1% gel
  number of CFUs in skin biopsy, 2% gel compared with 1% gel: more effective than the gel containing only 1% of compound 7
[27]
  MRSE (MIC): <2 mg/L
[28]
  MRSA (MIC): <2 mg/L
S. pyogenes
  S. pyogenes (MIC): <2 mg/L
